Experimental data as given in US20240000949A1, “Nucleic Acid-Derivatized Therapeutics” (The University of Chicago, priority 2020, published 2024).
{Alexa647} = Alexa Fluor 647 dye

B1: dsDNA: 38-mer double stranded DNA, SEQ ID NO: 40 and SEQ ID NO: 41, Alexa 647 labelled; targeting module without drug (nucleic acid)
chain 1: ATCAACACTGCACACCAGACAGCAAGATCCTATATATA
chain 2: TATATATAGGATCTTGCTGTCTGGTGTGCAGTGTTGAT
modifications: listed as DNA, chemistry not fully specified
notes: targeting module without drug

Columns and labels:
E0771 tumors = assay: E0771 tumor growth after i.v. delivery (incl. antibody depletion, anti-PD-L1 and CTX combinations); format: in vivo, mouse; conditions: E64-DNA 25 μg i.v., CTX 50 mg/kg
Method: E64-DNA or DNA (25 μg) was intravenously delivered (i.v.; retro-orbital) into E0771 tumor-bearing mice. E0771 tumor growth over 5 days after a single injection is shown. n=8/group. Statistical significance was calculated via two-tailed Student's t-test (p<0.05 values are provided); error bars indicate the mean of independent experiments±s.e.m. ns, not significant. All measurements (n) are biological replicates.
Experimental design for depleting TAMs with α-CSF1R antibody (top). Effect of IgG or α-CSF1R (300 μg) on E0771 tumor growth (bottom, left) and CD8^+ effector T cells in tumors (bottom, right) in mice treated with E64-DNA (n=8/group) or DNA (n=6/group). E64-DNA or DNA (25 μg) was intravenously delivered (i.v.; retro-orbital) into E0771 tumor-bearing mice.
Effects of α-CD8, α-PD-L1, or IgG antibodies on E0771 tumor growth in mice treated with E64-DNA or DNA. […]
E64-DNA or DNA (25 μg) was intravenously delivered (i.v.; retro-orbital) into E0771 tumor-bearing mice. […] Statistical significance was calculated via two-tailed Student's t-test (p<0.05 values are provided); error bars indicate the mean of independent experiments±s.e.m. ns, not significant. […]

[1] = tested on: Lactate dehydrogenase (LDH) in BMDMs; assay: LDH activity and lactate in BMDMs under hypoxia; format: cell-based, mouse; conditions: hypoxic (1% 02), 24h, vs vehicle
Method: FIG. 82. […] Bone marrow-derived macrophages (BMDMs) were cultured under normoxic (n) or hypoxic (h, 1% 02) conditions for 24h in the presence of vehicle (veh), GNE, or GNE-DNA.
FIG. 83. […] Bone marrow-derived macrophages (BMDMs) were cultured under normoxic (n) or hypoxic (h, 1% 02) conditions for 24h in the presence of vehicle (veh), GNE, or GNE-DNA. Intracellular lactate levels in BMDMs are decreased by GNE or GNE-DNA under hypoxic conditions to levels compared to vehicle.
BMDMs were differentiated from bone marrow stem cells with L-cell conditioned media for six days as previously described (Kratz et al.).

TAMs / OT-1 CD8+ T cells = assay: MHCI-restricted antigen cross-presentation by TAMs (OVA-OT-1 CD8+ T cell system); format: cell-based, mouse; conditions: 100 nM, alone
Method: OT-1 CD8^+ T-cell activation (FIG. 53B) and proliferation (FIG. 53C) after 72h of co-culture with TAMs. n=3/group. Vehicle (Veh)=phosphate-buffered saline. Statistical significance was calculated via two-tailed Student's t-test (p<0.05 values are provided); error bars indicate the mean of independent experiments±s.e.m. ns; not significant. TAMs were isolated from E0771 tumors. All measurements (n) are biological replicates.
CD3/CD28 antibodies were included as a positive control for T cell activation. n=3/group. Statistical significance was calculated via two-tailed Student's t-test (p<0.05 values are provided); error bars indicate the mean of independent experiments±s.e.m. All measurements (n) are biological replicates. […]
T cell activation—CD8^+ or CD4^+ T cells were treated with BD GolgiPlug for the final 6 h of coculture with macrophages to allow intracellular IFNγ accumulation. […] The percent of IFNγ^+/CD44^+CD8^+ T cells was quantified by flow cytometry. In some cases, CD8^+ T cell IFNγ production in the culture medium at 72h was quantified using a mouse IFN-γ ELISA kit (Invitrogen).
T cell proliferation—Isolated CD4^+ or CD8^+ T cells were labeled with 5 μM 5,6-carboxyfluorescein diacetate succinimidyl ester (CF SE, Invitrogen) according to the manufacturer's instructions. The number of proliferating cells (CF SE-diluted) was quantified using CountBright™ beads (Invitrogen). […]

[2] = tested on: TAMs isolated from E0771 tumors; assay: DQ-OVA degradation by TAMs treated ex vivo; format: cell-based, mouse; conditions: 100 nM, 2h ex vivo
Method: FIGS. 46A-46B. A lysosome-targeted DNA nanodevice (E64-DNA) promotes antigen cross-presentation by TAMs. FIG. 43A, Representative images (left) and Pearson correlation (right) of co-localization of TMR-Dextran labeled lysosomes (green) with E64-DNA (red). Pearson correlation with and without a 20-pixel shift (˜lysosome diameter) of the green signal. n=15 cells/group. scale bar=[…]. FIG. 43B, DQ-OVA degradation by TAMs treated with E64-DNA, DNA, or E64 (100 nM) for 2h. n=3/group. Statistical significance was calculated via two-tailed Student's t-test (p<0.05 values are provided); error bars indicate the mean of independent experiments±s.e.m. ns; not significant. TAMs were isolated from E0771 tumors. All measurements (n) are biological replicates.
Analysis of lysosomal degradation by DQ-OVA. Lysosomal degradative capacity of macrophages was assessed by a DQ-OVA degradation assay (D-12053, Invitrogen®) according to the manufacturer's instruction. Briefly, 0.2 million cells were incubated with 10 μg/mL of DQ-OVA at room temperature for 15 min, washed, and incubated at 37° C. for another 15 min. DQ-OVA fluorescence was quantified by flow cytometry.

tumor growth = conditions: 1 mg, daily; cited from earlier work
BMDMs = assay: Uptake of fluorescently labelled nucleic acid scaffolds by BMDMs (flow cytometry); format: cell-based, mouse; conditions: pulsed with 50 nM scaffold 30 min, chased 15 min
Source text: FIGS. 1A-1B. Uptake of various oligonucleotides by bone marrow-derived macrophages (BMDMs). FIG. 1A, Schematic of various fluorescently labelled nucleic acid structures used for uptake studies in BMDMs. Each nucleic acid scaffold is either a single stranded or double stranded 38 mer DNA (D) or RNA (R) sequence, or a DNA:RNA hybrid or complex. Each scaffold is labelled with an Alexa Fluor® 647N fluorophore on the 5′ end of one of the strands. From left to right, the constructions tested were dsDNA (SEQ ID NO: 40 and SEQ ID NO: 41 or SEQ ID NO: 42), ssDNA (SEQ ID NO: 41), dsRNA (SEQ ID NO: 43 and SEQ ID NO: 44), ssRNA (SEQ ID NO: 43), and ssDNA:ssRNA (SEQ ID NO: 45 and SEQ ID NO: 46). FIG. 1B, BMDMs were pulsed with 100 nM of each nucleic acid scaffold for 30 min. The cells were then washed and chased for 15 min after which were subjected to flow cytometry based quantification. Mean fluorescence intensity (A/IFI) of nucleic acid scaffold uptake by BMDMs is shown.
Various fluorescently labelled scaffolds were tested in a variety of nucleic acid configurations (Table 1).
BMDMs were pulsed with 50 nM of each nucleic acid scaffold for 30 min. The cells were then washed and chased for 15 min after which they were subjected to flow cytometry quantification. A nucleic acid scaffold was then selected for subsequent experiments. […]

M2 BMDMs = assay: Uptake by M2 BMDMs in vitro (wt and scavenger receptor knockouts; nucleic acid variants); format: cell-based, mouse; conditions: 30 min
Method: FIG. 48. A lysosome-targeted DNA nanodevice (E64-DNA) promotes antigen cross-presentation by TAMs. E64-DNA uptake by M2 BMDMs from wt, Scarb1−/−, Msr1−/−, or Cd36−/− mice. Uptake was quantified by flow cytometry; n=3/group. Statistical significance was calculated via two-tailed Student's t-test (p<0.05 values are provided); error bars indicate the mean of independent experiments±s.e.m. ns; not significant. TAMs were isolated from E0771 tumors. All measurements (n) are biological replicates.
FIGS. 49A-49B. DNA nanodevice uptake and stability. FIG. 49A, Schematic of various fluorescently labeled nucleic acid structures used for uptake studies in BMDMs. Each nucleic acid scaffold is either a single stranded or double stranded 38 mer DNA or RNA sequence. Each scaffold is labelled with an Alexa Fluor® 647 fluorophore on the 5′ end of one of the strands. FIG. 49B, Uptake of various types of nucleic acids by M2 BMDMs. n=3/group. Statistical significance was calculated via two-tailed Student's t-test (p<0.05 values are provided); error bars indicate the mean of independent experiments±s.e.m. ns; not significant. […]
E64-DNA uptake by M2 BMDMs in vitro—E64-DNA (100 nM) or other types of nucleic acids (D1-D2, D2, R1-R2, R2) was incubated with 0.2 million M2-activated BMDMs from wt, Scarb1−/−, Msr1−/−, or Cd36−/− mice for 30 min, washed with PBS, and uptake was assessed by flow cytometry.

alveolar macrophages = assay: In vivo labeling by intratracheal dsDNA; parameters: species or system mouse; conditions: 100 μg dsDNA intratracheally
Method: (§1) FIGS. 2A-2B. dsDNA preferentially targets macrophages in other tissues. FIG. 2A, Fluorescently labeled dsDNA (100 μg) was injected intratracheally into mice and cells were harvested 2 hr post injection with a bronchoalveolar lavage. Uptake by alveolar macrophages (AM, CD45^+CD11b^−CD11c^+) and alveolar neutrophils (AN, CD45^+CD11b^+Ly6G^+) was quantified by flow cytometry. FIG. 2B, Fluorescently labeled dsDNA (100 μg) was injected intraperitoneally into mice and visceral adipose tissue was harvested 4 hr post injection. Adipose tissue was digested to obtain the stromal vascular fraction. dsDNA uptake by cells in the stromal vascular fraction was quantified by flow cytometry. ATM=adipose tissue macrophage (CD45^+CD11b^+F4/80^+).
(§2) BMDMs were pulsed with 50 nM of each nucleic acid scaffold for 30 min. The cells were then washed and chased for 15 min after which they were subjected to flow cytometry quantification. A nucleic acid scaffold was then selected for subsequent experiments. To test the efficiency of macrophage labeling in vivo, 25 μg of fluorophore labeled dsDNA was injected intravenously into a mouse model of triple-negative breast cancer (TNBC).

[3] = tested on: tumor associated macrophages; assay: In vivo macrophage labeling by i.v. fluorophore labeled dsDNA, TNBC model; conditions: 25 μg dsDNA i.v., TNBC mouse model
Method: as §2

[4] = tested on: adipose tissue macrophages; assay: In vivo labeling by intraperitoneal dsDNA; parameters: species or system mouse; conditions: 100 μg dsDNA intraperitoneally
Method: as §1, §2

Molecule | antigen cross-presentation by TAMs (TAMs / OT-1 CD8+ T cells) | DQ-OVA degradation by TAMs [2] | uptake of nucleic acid scaffold by BMDMs (BMDMs) | internalization of 38 nucleotide Alexa 647 scaffolds by M2 BMDMs (M2 BMDMs) | also measured
O=P1(N(CCCl)CCCl)NCCCO1 (stereo not drawn) [CTX, cyclophosphamide] | – | – | – | – | sustained tumor regression in the E0771 model (E0771 tumors): could not be replicated
O=C1N[C@](c2ccc(N3CCOCC3)cc2)(c2ccsc2)CC(O)=C1Sc1ccccc1Cl [GNE, (R)-GNE-140] | – | – | – | – | Lactate dehydrogenase (LDH) activity in BMDMs [1]: decreased; intracellular lactate levels in BMDMs [1]: decreased
CC(C)C[C@H](NC(=O)[C@@H]1O[C@H]1C(=O)O)C(=O)NCCCCNC(=N)N [E64, reference compound] | did not affect cross-presentation | could not be reproduced | – | – | tumor growth, free E64 high doses (tumor growth): limited impact on tumor growth
ssDNA: single stranded 38 mer DNA, SEQ ID NO: 41, Alexa 647 labelled (TATATATAGGATCTTGCTGTCTGGTGTGCAGTGTTGAT; DNA, 5' {Alexa647}, backbone and methylation of C not given here) | – | – | maximal uptake | required a ssDNA or dsDNA scaffold | –
B1 | did not affect cross-presentation | could not be reproduced | maximal uptake | required a ssDNA or dsDNA scaffold | labeling of alveolar macrophages preferentially over other cell types (alveolar macrophages): > 95%; labeling of tumor associated macrophages preferentially over any other cell type in the tumor microenvironment [3]: > 90%; labeling of adipose tissue macrophages preferentially over other cell types [4]: 70%
